Measured values published in PubChem BioAssay AID1845199 (Molecular Pharmacology Branch, DTP, NCI, 2023).

Test system: 556581-035-R-J1 tumor spheroid viability, % test/control
Assay: Anticancer human tumor 556581-035-R-J1 patient-derived ovarian carcinoma cell line growth inhibition
Conditions: spheroids with HUVEC and MSC; for IC50: curve of first compound; for viability, T/C: stronger effect = lower value
Summary of the method: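 Complex tumor spheroids combined malignant cells with endothelial cells and mesenchymal stem cells. DNA-damaging drugs and DNA repair inhibitors were tested alone and in combination, at half-log dilutions down from clinical Cmax (top 10 microM if Cmax unknown), 0.25% DMSO final.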

[1] = second compound 1 µM, first compound 0.0316 µM
[2] = second compound 1 µM, first compound 0.1 µM
[3] = second compound 1 µM, first compound 0.316 µM
[4] = second compound 1 µM, first compound 1 µM
[5] = second compound 1 µM, first compound 3.16 µM
[6] = second compound 1 µM, first compound 10 µM
[7] = second compound 3.16 µM, first compound 0.0316 µM
[8] = second compound 3.16 µM, first compound 0.1 µM
[9] = second compound 3.16 µM, first compound 0.316 µM
[10] = second compound 3.16 µM, first compound 1 µM
[11] = second compound 3.16 µM, first compound 3.16 µM
[12] = second compound 3.16 µM, first compound 10 µM
[13] = second compound 10 µM, first compound 0.0316 µM
[14] = second compound 10 µM, first compound 0.1 µM
[15] = second compound 10 µM, first compound 0.316 µM
[16] = second compound 10 µM, first compound 1 µM
[17] = second compound 10 µM, first compound 3.16 µM
[18] = second compound 10 µM, first compound 10 µM
[19] = second compound 31.6 µM, first compound 0.0316 µM
[20] = second compound 31.6 µM, first compound 0.1 µM
[21] = second compound 31.6 µM, first compound 0.316 µM
[22] = second compound 31.6 µM, first compound 1 µM
[23] = second compound 31.6 µM, first compound 3.16 µM
[24] = second compound 31.6 µM, first compound 10 µM
[25] = second compound 100 µM, first compound 0.0316 µM
[26] = second compound 100 µM, first compound 0.1 µM
[27] = second compound 100 µM, first compound 0.316 µM
[28] = second compound 100 µM, first compound 1 µM
[29] = second compound 100 µM, first compound 3.16 µM
[30] = second compound 100 µM, first compound 10 µM
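Further: spheroids exposed to compounds for 7 days before viability read.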

CC1COCCN1c1cc(-c2ccnn2C)c2ccnc(-c3ccn[nH]3)c2n1 (stereo not given) + Cn1nnc2c(C(N)=O)ncn2c1=O
IC50 (second compound 1 µM): 0.565 µM
IC50 (second compound 3.16 µM): 0.591 µM
IC50 (second compound 10 µM): 0.679 µM
IC50 (second compound 31.6 µM): 0.604 µM
IC50 (second compound 100 µM): 0.392 µM
viability, T/C [1]: 93.7%
viability, T/C [2]: 69.3%
viability, T/C [3]: 56.3%
viability, T/C [4]: 43.7%
viability, T/C [5]: 39.9%
viability, T/C [6]: 33%
viability, T/C [7]: 90.6%
viability, T/C [8]: 72.5%
viability, T/C [9]: 56.4%
viability, T/C [10]: 44.2%
viability, T/C [11]: 37.8%
viability, T/C [12]: 32.5%
viability, T/C [13]: 86.8%
viability, T/C [14]: 71%
viability, T/C [15]: 56%
viability, T/C [16]: 45.9%
viability, T/C [17]: 40%
viability, T/C [18]: 31.2%
viability, T/C [19]: 88.9%
viability, T/C [20]: 71.6%
viability, T/C [21]: 54.6%
viability, T/C [22]: 45.8%
viability, T/C [23]: 39.1%
viability, T/C [24]: 33.4%
viability, T/C [25]: 82.8%
viability, T/C [26]: 63.8%
viability, T/C [27]: 51.7%
viability, T/C [28]: 42.8%
viability, T/C [29]: 38.1%
viability, T/C [30]: 32.8%

COc1cc(C)[nH]c(=O)c1CN1CCc2c(Cl)cc(C(OC)C3COC3)c(Cl)c2C1=O (stereo not given) + Cn1nnc2c(C(N)=O)ncn2c1=O
IC50 (second compound 1 µM): > 10 µM
IC50 (second compound 3.16 µM): > 10 µM
IC50 (second compound 10 µM): > 10 µM
IC50 (second compound 31.6 µM): > 10 µM
IC50 (second compound 100 µM): > 10 µM
viability, T/C [1]: 105%
viability, T/C [2]: 102%
viability, T/C [3]: 117%
viability, T/C [4]: 109%
viability, T/C [5]: 107%
viability, T/C [6]: 102%
viability, T/C [7]: 99.3%
viability, T/C [8]: 113%
viability, T/C [9]: 100%
viability, T/C [10]: 107%
viability, T/C [11]: 105%
viability, T/C [12]: 105%
viability, T/C [13]: 105%
viability, T/C [14]: 106%
viability, T/C [15]: 106%
viability, T/C [16]: 112%
viability, T/C [17]: 111%
viability, T/C [18]: 104%
viability, T/C [19]: 115%
viability, T/C [20]: 118%
viability, T/C [21]: 110%
viability, T/C [22]: 107%
viability, T/C [23]: 108%
viability, T/C [24]: 108%
viability, T/C [25]: 112%
viability, T/C [26]: 107%
viability, T/C [27]: 106%
viability, T/C [28]: 115%
viability, T/C [29]: 114%
viability, T/C [30]: 103%

Cc1cc(C)c(CNC(=O)c2cc(-c3ccc(CN4CCOCC4)cc3)cc3c2cnn3C2CCCC2)c(=O)[nH]1 + Cn1nnc2c(C(N)=O)ncn2c1=O
IC50 (second compound 1 µM): > 10 µM
IC50 (second compound 3.16 µM): > 10 µM
IC50 (second compound 10 µM): > 10 µM
IC50 (second compound 31.6 µM): > 10 µM
IC50 (second compound 100 µM): > 10 µM
viability, T/C [1]: 105%
viability, T/C [2]: 107%
viability, T/C [3]: 110%
viability, T/C [4]: 103%
viability, T/C [5]: 110%
viability, T/C [6]: 88%
viability, T/C [7]: 107%
viability, T/C [8]: 108%
viability, T/C [9]: 112%
viability, T/C [10]: 108%
viability, T/C [11]: 108%
viability, T/C [12]: 88.2%
viability, T/C [13]: 118%
viability, T/C [14]: 118%
viability, T/C [15]: 111%
viability, T/C [16]: 121%
viability, T/C [17]: 114%
viability, T/C [18]: 93.6%
viability, T/C [19]: 115%
viability, T/C [20]: 105%
viability, T/C [21]: 116%
viability, T/C [22]: 108%
viability, T/C [23]: 110%
viability, T/C [24]: 86.1%
viability, T/C [25]: 113%
viability, T/C [26]: 116%
viability, T/C [27]: 107%
viability, T/C [28]: 122%
viability, T/C [29]: 109%
viability, T/C [30]: 84.8%

Cc1sc2c(c1C)C(c1ccc(Cl)cc1)=NC(CC(=O)Nc1ccc(O)cc1)c1nnc(C)n1-2 (stereo not given) + Cn1nnc2c(C(N)=O)ncn2c1=O
IC50 (second compound 1 µM): > 3 µM
IC50 (second compound 3.16 µM): > 3 µM
IC50 (second compound 10 µM): > 3 µM
IC50 (second compound 31.6 µM): > 3 µM
IC50 (second compound 100 µM): 2.7 µM
viability, T/C (second compound 1 µM, first compound 0.00949 µM): 112%
viability, T/C (second compound 1 µM, first compound 0.03 µM): 95.6%
viability, T/C (second compound 1 µM, first compound 0.0949 µM): 82%
viability, T/C (second compound 1 µM, first compound 0.3 µM): 76.4%
viability, T/C (second compound 1 µM, first compound 0.949 µM): 68%
viability, T/C (second compound 1 µM, first compound 3 µM): 64.5%
viability, T/C (second compound 3.16 µM, first compound 0.00949 µM): 101%
viability, T/C (second compound 3.16 µM, first compound 0.03 µM): 97.6%
viability, T/C (second compound 3.16 µM, first compound 0.0949 µM): 84.8%
viability, T/C (second compound 3.16 µM, first compound 0.3 µM): 75.6%
viability, T/C (second compound 3.16 µM, first compound 0.949 µM): 65.5%
viability, T/C (second compound 3.16 µM, first compound 3 µM): 61.2%
viability, T/C (second compound 10 µM, first compound 0.00949 µM): 98%
viability, T/C (second compound 10 µM, first compound 0.03 µM): 94.6%
viability, T/C (second compound 10 µM, first compound 0.0949 µM): 82.6%
viability, T/C (second compound 10 µM, first compound 0.3 µM): 72.6%
viability, T/C (second compound 10 µM, first compound 0.949 µM): 68.1%
viability, T/C (second compound 10 µM, first compound 3 µM): 57.5%
viability, T/C (second compound 31.6 µM, first compound 0.00949 µM): 96.9%
viability, T/C (second compound 31.6 µM, first compound 0.03 µM): 93.9%
viability, T/C (second compound 31.6 µM, first compound 0.0949 µM): 82.2%
viability, T/C (second compound 31.6 µM, first compound 0.3 µM): 70.7%
viability, T/C (second compound 31.6 µM, first compound 0.949 µM): 65.1%
viability, T/C (second compound 31.6 µM, first compound 3 µM): 54.3%
viability, T/C (second compound 100 µM, first compound 0.00949 µM): 99.5%
viability, T/C (second compound 100 µM, first compound 0.03 µM): 99.2%
viability, T/C (second compound 100 µM, first compound 0.0949 µM): 79.9%
viability, T/C (second compound 100 µM, first compound 0.3 µM): 71.5%
viability, T/C (second compound 100 µM, first compound 0.949 µM): 59.1%
viability, T/C (second compound 100 µM, first compound 3 µM): 48.5%

[2H]c1nc(C)nc([2H])c1-c1cc(NC[C@@H](C)c2cccc3c(C(=O)NC)ccnc23)ncn1 + Cn1nnc2c(C(N)=O)ncn2c1=O
IC50 (second compound 1 µM): > 10 µM
IC50 (second compound 3.16 µM): > 10 µM
IC50 (second compound 10 µM): > 10 µM
IC50 (second compound 31.6 µM): > 10 µM
IC50 (second compound 100 µM): > 10 µM
viability, T/C [1]: 111%
viability, T/C [2]: 111%
viability, T/C [3]: 106%
viability, T/C [4]: 112%
viability, T/C [5]: 108%
viability, T/C [6]: 112%
viability, T/C [7]: 98.7%
viability, T/C [8]: 104%
viability, T/C [9]: 106%
viability, T/C [10]: 115%
viability, T/C [11]: 119%
viability, T/C [12]: 113%
viability, T/C [13]: 105%
viability, T/C [14]: 103%
viability, T/C [15]: 115%
viability, T/C [16]: 112%
viability, T/C [17]: 113%
viability, T/C [18]: 115%
viability, T/C [19]: 116%
viability, T/C [20]: 109%
viability, T/C [21]: 115%
viability, T/C [22]: 119%
viability, T/C [23]: 116%
viability, T/C [24]: 112%
viability, T/C [25]: 115%
viability, T/C [26]: 114%
viability, T/C [27]: 116%
viability, T/C [28]: 114%
viability, T/C [29]: 108%
viability, T/C [30]: 114%
